In article PMC5458179, “Oxidative DNA double strand breaks and autophagy in the antitumor effect of sterically hindered platinum(II) complexes in NSCLCs” (Oncotarget, 2017):

Key:
[1] = system: A549 and NCI-H1299 cancer cells; assay: ROS measurement (DCF fluorescence); type: cell-based, human; details: A549 and NCI-H1299, 10 μM
Procedure: As excessive ROS generation is associated with cell-killing activity, we further examined whether complex 3 could also induce the formation of excessive ROS in A549 and NCI-H1299 cancer cells.
The generation of ROS induced by complex 3 was determined with the cell permeant fluorogenic probe 2′,7′-dichlorodihydrofluorescein diacetate (H2DCFDA; Molecular Probes, Invitrogen, Darmstadt, Germany) as described. H2DCFDA diffuses into the cell, where it is enzymatically converted by intracellular esterases and oxidized into the high fluorescence compound DCF, which allows the determination of H2O2, peroxynitrite anions and peroxyl radicals. Approximately 4×10^3 A549 and NCI-H1299 cancer cells per well were plated on white bottom 96-well plates in extracellular fluid ([…] NaCl, 3 mM KCl, 1 mM CaCl2, 1 mM MgCl2, 10 mM HEPES and 25 mM glucose; pH 7.4). […] Then, cells were loaded with […] H2DCFDA for 30 min at 37°C and 5% CO2. Then, cells DCF generation was measured over time using a fluorometer (Fluostar BMG Labtech, Offenburg, Germany) at 492 nm excitation and 520 nm emission.

p-XRCC1 = assay: Immunostaining of SSB repair protein; type: cell-based, human; details: A549, 10 μM, 24 h
Description: The serine 139-phosphorylated form of chromatin-associated histone H2AX, namely γ-H2AX, is a key marker of cellular response to DDR, particularly DSBs. […] Obviously, pre-treatment of NAC could considerably alleviate the DDR triggered by complex 3 (Figure 5B). Therefore, we came to a conclusion that complex 3 caused DDR especially DSBs in A549 cells, which might happen after the increased level of intracellular ROS. In order to reveal the mechanisms underlying the enhanced DNA damage, complex 3 was studied to learn whether it could reduce the activation of DNA repair response including the co-localization of DSB repair protein MDC1/Aprataxin within nucleus. […] In order to reveal the mechanisms underlying DNA damage, complex 3 was studied to detect whether it could suppress the activation of DNA single strand break repair via the phosphorylation of SSB repair mediator/adaptor proteins XRCC1 within nucleus.
For assessment of DSBs repair kinetics we detected the total nuclear volume for an average of 50–60 nuclei per time points and cell type. Briefly, A549 cells were grown to confluence in 35 mm petri-dishes with 0.17 mm glass bottom. […] Non-specific binding was blocked by incubation with 5% FCS/PBS/0.1% Triton X-100 for 1 h at RT. […] Numbers of γH2AX foci were counted in 50–60 nuclei and plotted over time as previously described.

Question: For CC(C)C[NH+]1[C@@H]2CCCC[C@H]2[NH+](CC(C)C)[Pt-2]12[O]C(=O)CC(=O)[O]2 (some centres unmarked) [Complex 3], which ROS production [1] is on record?
Answer: Its ROS production is “induced the production of significant amounts of ROS”.

Question: And the “phosphorylation of XRCC1” value (p-XRCC1)?
Answer: The value was “suppression of phosphorylation of XRCC1 compared with oxaliplatin”.
